Assay results reported in patent publication US5451506A, “Oncostatin M and novel compositions having anti-neoplastic activity” (Oncogen Limited Partnership, priority 1993, dated 1995).
“And” between values parts separate entries of the source, which are not always exact repeats. Equal entries are not always repeated.

Key:
A375 melanoma cells = assay: Cell growth modulatory assay using 3H-thymidine incorporation into DNA (GIA); type: cell-based, human; set-up: Observed % Inhibition of 3H-TdR Incorporation: concentration or dose not given beside the values
Protocol: (§1) The assays were performed in 96 flat well plates (Costar 3596). Human melanoma cells (A375) (3×10^3 /100 μl) or cells from another cell line of interest were at an appropriate cell density used. Cells in 100 μl growth medium were placed in each well. Three hours later, 100 μl of test sample in growth medium was added to each well. Plates were incubated at 37° C. for 3 days. Then 25 μl (0.5 μCi) of a solution of ^3 H-thymidine (specific activity 27 μCi/μg) was added to each well for the final 6 hours of incubation. The cells were then transferred to glass filter strips using a multiwell harvester (PHD Cell Harvester, Cambridge Technology, Inc.). The filters were transferred to scintillation vials. Two ml of scintillation fluid (ScientiVerse II, Fisher Scientific Co.) was added and the samples counted in a scintillation counter to quantitate ^3 H-thymidine incorporation.

[1] = system: HTB10 neuroblastoma cells; assay: as above; type: cell-based, human
Protocol: as §1
(§2) The effect of Oncostatin M on various cell lines was assessed using a cell growth modulatory assay performed as described in Example 1B, above. The cell lines tested included A549 lung cancer cells. HTB10 neuroblastoma cells, and A375 melanoma cells.

A549 lung cancer cells = assay: as above; type: cell-based, human
Protocol: as §1, §2

A375 cells [2] = assay: Growth inhibition assay (A375 proliferation; synergy tests); type: cell-based, human; conditions: 1.8 U/ml, alone
Protocol: A375 melanoma cells (4×10^3 cells/50 μl), Mv1Lu mink lung epithelial cells (3.5×10^3 cells/50 μl), or other cell line of interest at an appropriate cell density were subcultured for four hours on flat-bottomed 96-well tissue culture plates (Costar 3596, Cambridge, Mass.) in growth medium comprising Dulbecco's modified Eagle's medium (DMEM), supplemented with 10% heat-in-activated fetal bovine serum, and P/S. Test samples to be assayed for growth inhibition were diluted in growth medium and assayed in triplicate with 50 μl of the diluted sample added to each well. The cells were incubated for 72 hours at 37° C.
The growth inhibitory activity of highly purified TGF-β1, recombinant gamma-interferon (rIFN-γ), and Oncostatin M on A375 cells was determined, and possible synergy between TGF-β1 and Oncostatin M, TGF-β1 and rIFN-γ, and Oncostatin M and rIFN-γ in inhibiting A375 proliferation was tested. […] is expressed in units of Mv1Lu growth inhibitory activity, rIFN-γ in units of anti-viral activity and Oncostatin M in units of A375 growth inhibitory activity. Concentrations of TGF-β1 (1-30 U/ml) and Oncostatin M (0.5-10 U/ml) were chosen which caused either no or only minimal growth inhibition when tested individually.

A375 cells [3] = assay: Effect of acid, base and heat treatments on tumor growth inhibitory activity; type: cell-based, human
Protocol: as §1
U937 cells (RPMI 1640+5% FCS seeded at 7.5×10^5 cells/ml) were treated with TPA (10 ng/ml) for 3 days. The cells were then washed with medium (serum-free RPMI 1640) and incubated for 24 hr in serum-free (serum-free RPMI 1640) medium before collecting the supernatants. The supernatants were treated with 1N acetic acid or 1N ammonium hydroxide. They were then dialyzed against medium (serum-free RPMI 1640) and tested for their ability to inhibit ^3 H-thymidine incorporation into A375 cells using the assay as described in Example 1B

A375 tumor cells = assay: Inhibition of growth of A375 tumors in nude mice; type: in vivo; conditions: for Cumulative Tumor Size: 3 mice
Protocol: A375 tumor cells (2.3×10^6) or an appropriate number of cells of another cell line of interest were injected subcutaneously in the interscapular region of nude mice. When the tumors became palpable, half of the mice were inoculated subcutaneously proximal to the tumor with either (a) 100 μl PBS containing 1.6 μg bovine serum albumin (BSA) or (b) 100 μl PBS containing 1.6 μg BSA plus the test sample. The mice were inoculated in the same manner every 2-3 days until about 19 days after the first inoculation. The diameter and width of each tumor was measured every 2-3 days using calipers.
Six nude mice were injected with A375 cells as described in Example 1D, above. After the tumors became palpable, the mice were injected, proximal to the tumor, with PBS (control) or PBS containing 400 ng Oncostatin M, three mice in each group.
The cumulative sizes (mm^2) of the tumors in each group of three mice were determined every 2-3 days.

bone marrow cells = assay: Granulocytic/myelocytic colony formation from bone marrow cells; type: cell-based; conditions: concentrations up to 100 GIA units/ml
MCF-7 breast tumor cells = assay: Inhibition of 3H-TdR incorporation, Oncostatin M and TNF-α; type: cell-based, human; conditions: MCF-7 Cells
Protocol: as §1
Inhibition of ^3 H-TdR incorporation into A375 cells and MCF-7 cells were compared using the assay described in Example 1B, above. The cells were treated with either Oncostatin M alone, TNF-α (Amgen Biologicals, human recombinant TNF-α) alone, or with a combination of Oncostatin M and TNF-α.

Substance: Oncostatin M: Human polypeptide growth regulator produced by activated leukocytes; apparent molecular weight approximately 28 kD by PAGE
- GIA Units to Cause 30% Inhibition 3H-TDR Incorporation (A375 melanoma cells; A375 (melanoma)): 0.3 GIA Units
- concentration to cause 30% inhibition 3H-TdR (A375 melanoma cells; A375, based upon the specific activity of purified Oncostatin M): ~0.015 ng/mL
- Observed % Inhibition of 3H-TdR Incorporation (A375 melanoma cells; A375 Cells): 17%
- % Inhibition of 3H-thymidine incorporated (A375 melanoma cells; Exp. 1, A375, 1 GIA units/well): 46%
- % Inhibition of 3H-thymidine incorporated (A375 melanoma cells; Exp. 1, A375, 4 GIA units/well): 62%
- % Inhibition of 3H-thymidine incorporated (A375 melanoma cells; Exp. 1, A375, 16 GIA units/well): 83%
- % Inhibition of 3H-thymidine incorporated (A375 melanoma cells; Exp. 2, A375, 3 GIA units/well): 76%
- % Inhibition of 3H-thymidine incorporated (A375 melanoma cells; Exp. 2, A375, 9 GIA units/well): 87%
- % Inhibition of 3H-thymidine incorporated (A375 melanoma cells; Exp. 3, A375, 8 GIA units/well): 71%
- % Inhibition of 3H-thymidine incorporated (A375 melanoma cells; Exp. 3, A375, 25 GIA units/well): 85%
- % Inhibition of 3H-thymidine incorporated (A375 melanoma cells; Exp. 3, A375, 75 GIA units/well): 89%
- % Inhibition of 3H-thymidine incorporated (A375 melanoma cells; Exp. 4, A375, 1 GIA units/well): 59%
- % Inhibition of 3H-thymidine incorporated (A375 melanoma cells; Exp. 4, A375, 5 GIA units/well): 75%
- % Inhibition of 3H-thymidine incorporated (A375 melanoma cells; Exp. 4, A375, 20 GIA units/well): 87%
- Growth inhibitory activity contained in the fraction (A375 melanoma cells; apparently homogeneous C18^3 fraction, approximately 300 ng protein): about 40,000 GIA units
- Proliferation of A375 cells (A375 melanoma cells; protein electroeluted from the 28 kD band, non-reducing PAGE): inhibit proliferation of A375 cells
- % Inhibition of 3H-thymidine incorporated ([1]; Exp. 2, HTB10, 3 GIA units/well): 11%
- % Inhibition of 3H-thymidine incorporated ([1]; Exp. 2, HTB10, 9 GIA units/well): 22%
- % Inhibition of 3H-thymidine incorporated ([1]; Exp. 2, HTB10, 27 GIA units/well): 28%
- GIA Units to Cause 30% Inhibition 3H-TDR Incorporation ([1]; HTB10 (neuroblastoma)): 81.0 GIA Units
- concentration to cause 30% inhibition 3H-TdR ([1]; HTB10, based upon the specific activity of purified Oncostatin M): ~4.0 ng/mL
- GIA Units to Cause 30% Inhibition 3H-TDR Incorporation (A549 lung cancer cells; A549 (lung cancer)): 21.0 GIA Units
- concentration to cause 30% inhibition 3H-TdR (A549 lung cancer cells; A549, based upon the specific activity of purified Oncostatin M): approximately 1.4 ng/ml
- % Inhibition of 3H-thymidine incorporated (A549 lung cancer cells; Exp. 3, A549, 8 GIA units/well): 16%
- % Inhibition of 3H-thymidine incorporated (A549 lung cancer cells; Exp. 3, A549, 25 GIA units/well): 22%
- % Inhibition of 3H-thymidine incorporated (A549 lung cancer cells; Exp. 3, A549, 75 GIA units/well): 30%
- Inhibition of cell growth (A375 cells [2]): 12%
- Resistance to inactivation by acid and base (A375 cells [3]; 1N acetic acid and 1N ammonium hydroxide, dialyzed supernatant): substantially resistant to inactivation
- Heat stability of activity (A375 cells [3]; 56° C. for 1 hr): retain its activity
- Heat stability of activity (A375 cells [3]; 95° C. for 30 min): lose substantially all its activity
- Tumor size relative to control animals (A375 tumor cells; 400 ng Oncostatin M vs PBS): about half the size of those in control animals
- Tumor weight relative to control-treated mice (A375 tumor cells; 400 ng Oncostatin M vs PBS, after 21 days): approximately one-third the weight of the tumors from the control-treated mice
- Cumulative Tumor Size (A375 tumor cells; day 0 after treatment, 400 ng, PBS 70): 50 mm^3
- Cumulative Tumor Size (A375 tumor cells; day 3 after treatment, 400 ng, PBS 116): 64 mm^3
- Cumulative Tumor Size (A375 tumor cells; day 5 after treatment, 400 ng, PBS 130): 66 mm^3
- Cumulative Tumor Size (A375 tumor cells; day 7 after treatment, 400 ng, PBS 160): 90 mm^3
- Cumulative Tumor Size (A375 tumor cells; day 10 after treatment, 400 ng, PBS 180): 88 mm^3
- Cumulative Tumor Size (A375 tumor cells; day 12 after treatment, 400 ng, PBS 210): 100 mm^3
- Cumulative Tumor Size (A375 tumor cells; day 14 after treatment, 400 ng, PBS 268): 116 mm^3
- Cumulative Tumor Size (A375 tumor cells; day -1 after treatment, 400 ng s.c. proximal to tumor every 2-3 days, PBS 30): 30 mm^3
- Tumor Wt (A375 tumor cells; individual mice (No. 94, 97, 95) after 21 days, PBS mice 540, 440, 480): 100 mg and 140 mg and 200 mg
- Granulocytic/myelocytic colony formation (bone marrow cells): does not inhibit granulocytic/myelocytic colony formation
- Observed % Inhibition of 3H-TdR Incorporation (MCF-7 breast tumor cells): 18%
